We go through 3 compounds from patent EP0021685A1.

≈ marks a conversion by molar mass, not a printed value.

The nature of one data set: physchem. Conditions: 66% aqueous dimethylformamide, pH 7.12.
The test system of another data set is Histoplasma capsulatum. The data set can be described thus: microbe, parasite or virus in culture. The class given is cell-based.
The next data set relates to Blastomyces dermatitidis. As to the kind of experiment: Standard agar-dilution test. It counts as cell-based.
Data set [1] deals with Trichophyton mentagrophytes. The data set can be described thus: Disc-diffusion antifungal test. Conditions: for zone of inhibition at 10000 µg/mL: read-out: Zone diameters (mm).
The next data set relates to Candida albicans. As to the kind of experiment: Disc-diffusion antifungal test. Conditions: 6-mm pads dipped in solutions of test compound.
For a further data set, the system named is Neurospora crassa. As to the kind of experiment: Disc-diffusion antifungal test. The settings on record: read-out: Zone diameters (mm).

Compound `CCCCC/C=C\C/C=C\CCCCCCCC(=O)N[C@H]1C[C@@H](O)[C@@H](OC)NC(=O)[C@@H]2[C@@H](O)[C@@H](C)CN2C(=O)[C@H]([C@@H](C)O)NC(=O)[C@H]([C@H](O)[C@@H](O)c2ccc(O)cc2)NC(=O)[C@@H]2C[C@@H](O)CN2C(=O)[C@H]([C@@H](C)O)NC1=O` yielded a pKa in “physchem” of approximately 12.9. Also, the MIC against Histoplasma capsulatum and in the data set on Blastomyces dermatitidis was 100 µg/mL (≈ 93.1 µM) throughout. For the same compound, the “MIC (mcg/disc)” value in data set [1] (disc-diffusion, 6-mm pads dipped in solutions of test compound) is listed as 0.078 mcg/disc; against Candida albicans, 1.25 mcg/disc.

For the compound `CCCCC/C=C\C/C=C\CCCCCCCC(=O)N[C@H]1C[C@@H](O)[C@@H](OCCCCCC)NC(=O)[C@@H]2[C@@H](O)[C@@H](C)CN2C(=O)[C@H]([C@@H](C)O)NC(=O)[C@H]([C@H](O)[C@@H](O)c2ccc(O)cc2)NC(=O)[C@@H]2C[C@@H](O)CN2C(=O)[C@H]([C@@H](C)O)NC1=O` [R = n-hexyl], the zone of inhibition at 10000 µg/mL with Neurospora crassa was determined as 25 mm; in data set [1], 35 mm.

For `CCCCC/C=C\C/C=C\CCCCCCCC(=O)N[C@H]1C[C@@H](O)[C@@H](OCCC)NC(=O)[C@@H]2[C@@H](O)[C@@H](C)CN2C(=O)[C@H]([C@@H](C)O)NC(=O)[C@H]([C@H](O)[C@@H](O)c2ccc(O)cc2)NC(=O)[C@@H]2C[C@@H](O)CN2C(=O)[C@H]([C@@H](C)O)NC1=O` [R = n-propyl], the values for the zone of inhibition at 10000 µg/mL (in the data set with Neurospora crassa; in data set [1]) were 20 mm and 35 mm, respectively.
